Measured values published in article PMC5333395, “Assessing histone demethylase inhibitors in cells: lessons learned” (Epigenetics & Chromatin, 2017).
Read-outs that look alike come from different tables or passages of the source.

Experiments:
[1] = tested on: HeLa cells; assay: Cell number in the high-content screen (DAPI staining) as measure of toxicity; conditions: concentrations used in the IF assays
From the text: (§2) Immunofluorescence images of 20 fields (if not indicated otherwise) were captured through a 20× objective on a PerkinElmer Operetta or the GE IN Cell 6000 using the appropriate filters and light sources for exciting DAPI, Alexafluor 488, and Alexafluor 568 or Alexafluor 647. […] From the DAPI channel, a binary mask was created to exclude individual nuclei smaller than 100 µm^2 and those overlapping the edge of the field.

[2] = tested on: H3K27me3 mark; assay: IF assay of histone mark in HeLa cells treated with cytotoxic agents
[3] = tested on: H3K9me2 mark; assay: as above
[4] = tested on: H3K36me2 mark; assay: as above
[5] = tested on: HeLa cells; assay: Hoechst 33342/Yo-Pro 3/Annexin triple staining, live cell death pattern analysis; assay type: cell-based
Protocol: Cells exposed to the inhibitors for 24 h were stained with Hoechst 33342 (1 µM), Yo-Pro 3 (1 µM) and Annexin V (0.3 μL per well) for 1 h. Cellular fluorescence was measured using the IN Cell 6000 (GE) using the following set-up parameters: bright-field transmitted light at 50% for 15 ms; Hoechst 33342 was excited by 35-ms exposure(Ex 360–400 nm/Em 410–480 nm), Yo-Pro 3 by 35-ms exposure(Ex 560–580 nm/Em 650–760 nm) and Annexin V (Alexa 488) by 45-ms exposure(Ex 460–490 nm/Em 500–550 nm). All the generated data were analysed using the IN Cell Analyser software, and three categories were distinguished: healthy cells, apoptosis and necrosis—calculated as percentage of each class for every concentration used.

[6] = tested on: H3K4me3 mark; assay: IF assay of histone mark in HeLa cells treated with cytotoxic agents
[7] = target: T1, KDM4C (Homo sapiens, UniProt Q9H3R0); assay: AlphaScreen in vitro demethylase assay; assay type: biochemical; conditions: in vitro KDM assay, Table S3; * likely false positive due to colour quenching; read-out: KDM4C IC50
T1 sequence (Q9H3R0 1-1056): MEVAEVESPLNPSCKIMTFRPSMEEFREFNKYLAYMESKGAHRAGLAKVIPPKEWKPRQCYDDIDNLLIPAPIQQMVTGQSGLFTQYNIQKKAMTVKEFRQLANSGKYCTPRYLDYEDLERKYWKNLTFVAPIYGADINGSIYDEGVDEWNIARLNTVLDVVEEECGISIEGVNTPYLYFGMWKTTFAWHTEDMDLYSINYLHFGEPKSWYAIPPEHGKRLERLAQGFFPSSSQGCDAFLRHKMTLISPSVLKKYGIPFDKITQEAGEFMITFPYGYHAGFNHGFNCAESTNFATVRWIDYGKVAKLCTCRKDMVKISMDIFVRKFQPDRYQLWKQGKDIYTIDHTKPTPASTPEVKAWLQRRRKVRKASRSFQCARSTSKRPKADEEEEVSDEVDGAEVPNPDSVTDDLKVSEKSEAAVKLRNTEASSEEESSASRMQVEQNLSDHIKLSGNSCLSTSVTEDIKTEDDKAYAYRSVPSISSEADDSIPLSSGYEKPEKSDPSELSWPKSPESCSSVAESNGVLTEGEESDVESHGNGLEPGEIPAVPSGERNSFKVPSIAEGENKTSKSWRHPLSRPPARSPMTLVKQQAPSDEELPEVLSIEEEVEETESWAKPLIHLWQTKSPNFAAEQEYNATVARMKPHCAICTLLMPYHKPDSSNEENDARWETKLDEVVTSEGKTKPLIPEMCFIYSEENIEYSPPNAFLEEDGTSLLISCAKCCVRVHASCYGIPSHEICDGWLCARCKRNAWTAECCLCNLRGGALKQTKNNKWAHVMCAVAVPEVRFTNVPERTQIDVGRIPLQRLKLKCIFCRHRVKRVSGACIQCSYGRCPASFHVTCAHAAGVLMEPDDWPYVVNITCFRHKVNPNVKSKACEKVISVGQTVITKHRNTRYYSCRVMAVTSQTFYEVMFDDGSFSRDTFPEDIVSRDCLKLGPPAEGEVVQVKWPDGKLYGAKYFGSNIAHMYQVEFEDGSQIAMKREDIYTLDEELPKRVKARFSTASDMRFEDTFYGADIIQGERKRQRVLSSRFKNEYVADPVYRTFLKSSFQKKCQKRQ
Protocol: (§1) IC50 values were determined as previously described. The following amendments were made to the protocol for carrying out 2-OG competition assays.

[8] = target: T2, KDM5B (Homo sapiens, UniProt Q9UGL1); assay: AlphaScreen in vitro demethylase assay; assay type: biochemical
Protocol: as §1

[9] = target: KDM6B (Homo sapiens, UniProt O15054); assay: AlphaScreen in vitro demethylase assay; assay type: biochemical; conditions: in vitro KDM assay, Table S3; * likely false positive due to colour quenching; read-out: KDM6B IC50
Protocol: as §1

[10] = target: T2, KDM5B; assay: High-content immunofluorescence (IF) assay, overexpressed full-length FLAG-tagged KDM in HeLa cells; assay type: cell-based; parameters: transiently transfecting the full-length FLAG-tagged demethylase (WT) into cells; expressed in transfected cells; host or cells: HeLa; conditions: for Effect on H3K4me3 mark in KDM5B IF assay, in words: HeLa cells transfected with KDM5B; for EC50: HeLa cells overexpressing WT KDM5B, H3K4me3 mark, 24 h, read-out: KDM5B, in cells, EC50 by IF assay (head: IC50)
Protocol: HeLa cells (ATCC) were cultured at 37 °C and 5% CO2 in Minimal Essential Media—Eagle (Sigma-Aldrich, UK) supplemented with 10% heat-inactivated foetal calf serum (FCS) (Gibco, UK), and 1% L-glutaMAX (Gibco, UK) in T75 flasks (Sarstedt, UK) and passaged regularly with TrypLE (Life Technologies, UK) before cells reached confluence. On day 0, 7000 cells per well were plated on a 96-well clear bottom CellCarrier plate (PerkinElmer, UK). The next day the cells were transfected with Lipofectamine 3000 (ThermoFisher Scientific, UK) following the manufacturer’s instructions. Briefly, 0.1 µg of plasmid DNA (encoding for the respective demethylase) and 0.15 µL of Lipofectamine 3000 were diluted in separate tubes containing 5 µL OptiMEM. 0.15 µL of P3000 was added to the tube with the DNA. The two solutions were then mixed gently and allowed to incubate for 5 min at room temperature. Next, the DNA-lipid complex was added to the cells for 4 h at 37 °C and 5% CO2.
Compound dilutions were made in a 96-well PCR plate (Starlab, UK). The culture medium was supplemented with 0.4% DMSO so that the solvent concentration was maintained throughout. Compounds were serially diluted at a 1:2 or 1:3 dilution ratio. Next, the cell culture plate was removed from the incubator and the medium was gently aspirated and replaced with the fresh medium containing diluted compounds.
Then cells were rinsed once with PBS and blocked for 30 min at room temperature using 3% v/v foetal calf serum diluted in PBS.

[11] = tested on: HeLa cells
From the text: as §2

[12] = target: T2, KDM5B; parameters: method as in PMID 26741168; conditions: AlphaScreen; in vitro biochemical profiling previously reported; cited from earlier work
[13] = target: T3, KDM3A (Homo sapiens, UniProt Q9Y4C1); assay: AlphaScreen in vitro demethylase assay; assay type: biochemical; conditions: IC50 ± SD (number of replicates)
T3 sequence (Q9Y4C1 1-1321): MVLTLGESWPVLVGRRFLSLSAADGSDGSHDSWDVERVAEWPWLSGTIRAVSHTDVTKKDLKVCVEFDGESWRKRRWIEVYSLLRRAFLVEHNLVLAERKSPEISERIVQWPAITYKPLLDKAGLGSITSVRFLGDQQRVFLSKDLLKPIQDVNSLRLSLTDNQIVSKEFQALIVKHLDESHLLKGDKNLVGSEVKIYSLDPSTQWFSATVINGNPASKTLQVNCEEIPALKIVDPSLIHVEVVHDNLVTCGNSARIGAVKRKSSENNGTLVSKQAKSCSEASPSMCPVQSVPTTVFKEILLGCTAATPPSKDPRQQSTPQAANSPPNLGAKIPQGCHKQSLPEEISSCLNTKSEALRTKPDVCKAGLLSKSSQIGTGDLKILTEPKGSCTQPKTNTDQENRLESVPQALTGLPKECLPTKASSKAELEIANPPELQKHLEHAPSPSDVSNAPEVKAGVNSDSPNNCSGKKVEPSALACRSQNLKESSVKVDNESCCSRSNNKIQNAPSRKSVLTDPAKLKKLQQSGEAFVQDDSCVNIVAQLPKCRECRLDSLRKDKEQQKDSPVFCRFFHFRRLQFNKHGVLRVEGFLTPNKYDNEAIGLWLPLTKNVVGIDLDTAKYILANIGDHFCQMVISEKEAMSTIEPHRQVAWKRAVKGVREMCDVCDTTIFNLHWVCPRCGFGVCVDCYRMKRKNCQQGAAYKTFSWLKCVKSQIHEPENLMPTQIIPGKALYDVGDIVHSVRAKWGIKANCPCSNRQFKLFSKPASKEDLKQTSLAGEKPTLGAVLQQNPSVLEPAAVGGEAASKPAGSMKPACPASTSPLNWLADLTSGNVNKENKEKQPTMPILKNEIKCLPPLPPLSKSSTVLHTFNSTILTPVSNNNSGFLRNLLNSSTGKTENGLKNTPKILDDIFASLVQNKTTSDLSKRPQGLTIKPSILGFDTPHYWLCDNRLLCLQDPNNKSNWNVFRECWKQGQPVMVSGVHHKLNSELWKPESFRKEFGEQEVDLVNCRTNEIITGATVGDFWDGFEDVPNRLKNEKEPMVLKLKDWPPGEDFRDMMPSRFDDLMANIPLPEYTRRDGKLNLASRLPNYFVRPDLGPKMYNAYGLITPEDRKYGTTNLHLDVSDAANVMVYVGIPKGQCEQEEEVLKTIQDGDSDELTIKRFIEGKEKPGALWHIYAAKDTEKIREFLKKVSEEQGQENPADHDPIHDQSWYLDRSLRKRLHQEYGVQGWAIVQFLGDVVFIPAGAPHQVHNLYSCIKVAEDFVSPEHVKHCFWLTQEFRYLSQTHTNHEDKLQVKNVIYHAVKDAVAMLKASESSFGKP
Protocol: as §1

[14] = target: KDM5C (Homo sapiens, UniProt P41229); assay: AlphaScreen in vitro demethylase assay; assay type: biochemical; conditions: IC50 ± SD (number of replicates)
Protocol: as §1

[15] = in vitro KDM assay, Table S3, * likely false positive due to colour quenching, read-out: KDM5B IC50
[16] = HeLa cells, 24 h, dose-dependent

T2 sequence (Q9UGL1 whole entry): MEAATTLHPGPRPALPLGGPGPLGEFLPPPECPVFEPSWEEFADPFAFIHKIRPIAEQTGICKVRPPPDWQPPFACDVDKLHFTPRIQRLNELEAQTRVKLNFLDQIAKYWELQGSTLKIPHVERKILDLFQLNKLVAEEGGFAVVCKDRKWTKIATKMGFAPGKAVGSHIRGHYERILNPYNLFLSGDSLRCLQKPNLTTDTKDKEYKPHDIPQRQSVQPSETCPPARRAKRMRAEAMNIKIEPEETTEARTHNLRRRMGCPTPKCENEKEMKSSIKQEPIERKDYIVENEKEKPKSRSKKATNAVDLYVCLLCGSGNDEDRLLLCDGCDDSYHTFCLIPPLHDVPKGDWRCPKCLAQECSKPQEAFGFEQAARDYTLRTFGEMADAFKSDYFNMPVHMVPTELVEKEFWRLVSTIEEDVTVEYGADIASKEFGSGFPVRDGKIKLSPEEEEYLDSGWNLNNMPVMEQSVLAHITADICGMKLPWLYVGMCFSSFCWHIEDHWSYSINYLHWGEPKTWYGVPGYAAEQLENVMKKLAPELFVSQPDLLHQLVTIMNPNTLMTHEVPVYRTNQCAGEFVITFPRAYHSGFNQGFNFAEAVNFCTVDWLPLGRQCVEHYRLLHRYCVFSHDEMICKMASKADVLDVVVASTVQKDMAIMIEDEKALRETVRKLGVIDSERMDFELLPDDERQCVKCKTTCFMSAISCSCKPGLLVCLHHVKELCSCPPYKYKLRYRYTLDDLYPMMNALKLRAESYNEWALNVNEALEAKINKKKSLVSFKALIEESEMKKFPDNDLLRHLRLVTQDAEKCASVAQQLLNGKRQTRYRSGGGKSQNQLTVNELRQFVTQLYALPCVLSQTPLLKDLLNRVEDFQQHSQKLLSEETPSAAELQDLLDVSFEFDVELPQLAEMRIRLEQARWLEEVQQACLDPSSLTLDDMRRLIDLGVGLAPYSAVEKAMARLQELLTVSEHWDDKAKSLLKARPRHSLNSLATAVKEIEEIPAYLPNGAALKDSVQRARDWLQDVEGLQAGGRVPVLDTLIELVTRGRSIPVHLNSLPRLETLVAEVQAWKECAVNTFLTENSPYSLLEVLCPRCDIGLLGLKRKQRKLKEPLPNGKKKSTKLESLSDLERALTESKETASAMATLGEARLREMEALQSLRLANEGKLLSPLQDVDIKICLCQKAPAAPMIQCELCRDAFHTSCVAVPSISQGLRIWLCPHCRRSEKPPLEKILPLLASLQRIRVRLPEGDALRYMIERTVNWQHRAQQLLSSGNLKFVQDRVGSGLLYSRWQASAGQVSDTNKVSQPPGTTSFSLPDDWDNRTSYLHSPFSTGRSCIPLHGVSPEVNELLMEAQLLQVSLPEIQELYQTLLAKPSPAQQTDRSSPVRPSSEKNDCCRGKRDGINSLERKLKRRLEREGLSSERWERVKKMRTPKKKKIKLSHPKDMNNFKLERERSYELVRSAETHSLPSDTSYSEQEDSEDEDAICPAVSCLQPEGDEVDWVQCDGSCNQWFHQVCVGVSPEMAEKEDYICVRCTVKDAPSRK
Chain of KDM6B (O15054 whole entry): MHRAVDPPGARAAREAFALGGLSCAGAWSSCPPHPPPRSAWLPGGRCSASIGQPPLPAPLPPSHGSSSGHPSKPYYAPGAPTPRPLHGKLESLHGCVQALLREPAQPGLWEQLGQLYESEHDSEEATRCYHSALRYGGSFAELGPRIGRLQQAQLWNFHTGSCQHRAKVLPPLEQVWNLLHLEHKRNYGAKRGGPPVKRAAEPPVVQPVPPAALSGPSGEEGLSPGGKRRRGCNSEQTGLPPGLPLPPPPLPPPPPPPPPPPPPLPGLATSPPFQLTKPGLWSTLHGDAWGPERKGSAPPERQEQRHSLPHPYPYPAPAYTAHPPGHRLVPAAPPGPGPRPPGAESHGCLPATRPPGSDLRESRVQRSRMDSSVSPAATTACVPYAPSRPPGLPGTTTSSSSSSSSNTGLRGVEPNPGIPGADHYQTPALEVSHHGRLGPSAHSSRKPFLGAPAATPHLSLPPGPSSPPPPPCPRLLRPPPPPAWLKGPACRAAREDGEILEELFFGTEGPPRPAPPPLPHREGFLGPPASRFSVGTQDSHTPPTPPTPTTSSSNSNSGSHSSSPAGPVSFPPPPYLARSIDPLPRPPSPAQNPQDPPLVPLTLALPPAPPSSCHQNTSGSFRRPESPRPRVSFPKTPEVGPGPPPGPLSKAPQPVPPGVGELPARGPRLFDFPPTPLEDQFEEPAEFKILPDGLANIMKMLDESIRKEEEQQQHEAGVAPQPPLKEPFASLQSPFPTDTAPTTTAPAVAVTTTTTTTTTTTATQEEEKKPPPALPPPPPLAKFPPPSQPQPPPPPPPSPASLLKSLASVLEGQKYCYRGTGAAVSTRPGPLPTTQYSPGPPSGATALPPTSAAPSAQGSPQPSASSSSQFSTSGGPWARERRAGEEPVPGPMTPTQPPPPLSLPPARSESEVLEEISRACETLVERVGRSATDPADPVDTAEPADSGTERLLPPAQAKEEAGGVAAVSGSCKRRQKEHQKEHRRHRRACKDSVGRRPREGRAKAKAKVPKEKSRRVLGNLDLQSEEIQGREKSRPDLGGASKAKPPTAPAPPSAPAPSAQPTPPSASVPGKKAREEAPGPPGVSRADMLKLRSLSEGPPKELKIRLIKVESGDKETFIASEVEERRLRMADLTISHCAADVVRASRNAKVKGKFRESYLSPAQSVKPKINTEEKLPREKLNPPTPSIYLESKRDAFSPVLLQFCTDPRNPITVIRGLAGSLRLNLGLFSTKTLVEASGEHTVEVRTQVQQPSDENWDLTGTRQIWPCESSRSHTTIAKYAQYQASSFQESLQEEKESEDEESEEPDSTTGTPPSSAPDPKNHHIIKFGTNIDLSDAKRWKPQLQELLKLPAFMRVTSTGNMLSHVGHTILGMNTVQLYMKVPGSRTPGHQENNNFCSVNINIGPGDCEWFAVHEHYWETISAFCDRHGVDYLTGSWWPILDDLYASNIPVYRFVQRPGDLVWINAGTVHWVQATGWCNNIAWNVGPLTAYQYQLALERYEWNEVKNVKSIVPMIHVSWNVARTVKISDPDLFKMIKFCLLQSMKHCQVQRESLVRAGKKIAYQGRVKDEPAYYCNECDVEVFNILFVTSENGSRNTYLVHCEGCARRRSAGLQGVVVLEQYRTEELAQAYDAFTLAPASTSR
Chain of KDM5C (P41229 whole entry): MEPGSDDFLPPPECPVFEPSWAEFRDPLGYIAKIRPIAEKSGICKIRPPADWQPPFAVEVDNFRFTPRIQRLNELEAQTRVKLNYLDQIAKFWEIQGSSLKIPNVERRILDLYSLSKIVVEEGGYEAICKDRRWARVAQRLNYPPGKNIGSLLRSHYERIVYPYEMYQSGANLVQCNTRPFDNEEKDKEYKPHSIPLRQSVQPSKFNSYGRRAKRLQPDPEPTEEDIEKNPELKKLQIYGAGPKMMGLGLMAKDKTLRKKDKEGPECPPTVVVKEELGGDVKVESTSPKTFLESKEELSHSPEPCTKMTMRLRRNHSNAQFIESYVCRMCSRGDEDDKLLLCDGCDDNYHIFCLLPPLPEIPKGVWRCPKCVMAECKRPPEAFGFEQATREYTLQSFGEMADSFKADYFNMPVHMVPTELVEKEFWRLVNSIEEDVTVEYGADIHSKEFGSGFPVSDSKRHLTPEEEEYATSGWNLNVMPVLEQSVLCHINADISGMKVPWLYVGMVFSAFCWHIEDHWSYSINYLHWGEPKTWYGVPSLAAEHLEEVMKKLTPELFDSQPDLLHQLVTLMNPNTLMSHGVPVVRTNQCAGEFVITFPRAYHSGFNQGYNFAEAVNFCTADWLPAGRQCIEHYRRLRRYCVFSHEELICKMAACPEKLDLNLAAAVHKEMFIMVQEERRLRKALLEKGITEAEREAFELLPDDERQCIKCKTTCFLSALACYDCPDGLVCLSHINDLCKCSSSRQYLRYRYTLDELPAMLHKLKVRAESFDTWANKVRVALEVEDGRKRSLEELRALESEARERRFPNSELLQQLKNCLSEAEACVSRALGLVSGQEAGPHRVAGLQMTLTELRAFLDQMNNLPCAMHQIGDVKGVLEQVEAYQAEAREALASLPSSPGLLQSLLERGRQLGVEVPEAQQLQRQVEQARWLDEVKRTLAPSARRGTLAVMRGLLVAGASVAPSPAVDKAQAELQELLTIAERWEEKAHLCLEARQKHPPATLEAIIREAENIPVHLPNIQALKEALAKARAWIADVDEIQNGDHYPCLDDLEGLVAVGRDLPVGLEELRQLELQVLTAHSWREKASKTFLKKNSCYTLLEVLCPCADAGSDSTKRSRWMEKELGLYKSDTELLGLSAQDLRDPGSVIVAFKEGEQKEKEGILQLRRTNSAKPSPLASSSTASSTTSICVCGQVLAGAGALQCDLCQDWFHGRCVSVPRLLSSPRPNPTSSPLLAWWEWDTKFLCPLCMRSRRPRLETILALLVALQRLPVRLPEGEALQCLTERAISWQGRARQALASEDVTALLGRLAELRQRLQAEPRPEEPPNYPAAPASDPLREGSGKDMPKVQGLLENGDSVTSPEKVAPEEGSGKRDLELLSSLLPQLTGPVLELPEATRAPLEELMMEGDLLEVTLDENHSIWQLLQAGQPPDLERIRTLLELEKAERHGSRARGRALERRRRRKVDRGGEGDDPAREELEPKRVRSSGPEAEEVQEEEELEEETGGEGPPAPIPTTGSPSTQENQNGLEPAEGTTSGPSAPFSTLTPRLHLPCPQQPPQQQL

Compound: COc1cccc2c1C(=O)c1c(O)c3c(c(O)c1C2=O)C[C@@](O)(C(=O)CO)C[C@@H]3O[C@H]1C[C@H](N)[C@H](O)[C@H](C)O1 [Doxorubicin, doxorubicin]
- Toxicity as measured by cell count (number of cells, DAPI staining) [1]: induced cell death
- Effect on H3K27me3 mark, in words [2]: profound effect
- Effect on H3K9me2 levels, in words [3]: some increase
- Effect on H3K36me2 levels, in words [4]: only marginally affected
- Cell death in triple staining (healthy, apoptotic, necrotic), in words [5]: predominant apoptotic staining
- Effect on H3K4me3 levels, in words [6]: no effect on this mark

Compound: CCOC(=O)CCNc1cc(N2CCc3ccccc3CC2)nc(-c2cccnc2)n1 [GSK-J5]
- Toxicity as measured by cell count (number of cells, DAPI staining) [1]: only minor toxicity at the highest concentrations used
- necrotic cells ([5]; HeLa cells, 50 µM): about 60%

Compound: CC(=O)O[C@H]1C(=O)[C@@]2(C)[C@H]([C@H](OC(=O)c3ccccc3)[C@]3(O)C[C@H](OC(=O)[C@H](O)[C@@H](NC(=O)c4ccccc4)c4ccccc4)C(C)=C1C3(C)C)[C@]1(OC(C)=O)CO[C@@H]1C[C@@H]2O [Paclitaxel, paclitaxel]
- Toxicity as measured by cell count (number of cells, DAPI staining) [1]: induced cell death
- Effect on H3K27me3 mark, in words [2]: profound effect
- Effect on H3K9me2 levels, in words [3]: not affected
- Effect on H3K36me2 levels, in words [4]: only marginally affected
- Cell death in triple staining (healthy, apoptotic, necrotic), in words [5]: predominant apoptotic staining
- IC50 [7]: > 100 µM
- IC50 [8, 15]: > 100 µM
- IC50 [9]: > 100 µM
- Effect on H3K4me3 levels, in words [6]: dose-dependent increase of H3K4me3

Compound: CCOC(=O)CCNc1cc(N2CCc3ccccc3CC2)nc(-c2ccccn2)n1 [GSK-J4]
- Effect on H3K4me3 mark in KDM5B IF assay, in words [10]: increase of the H3K4me3 mark
- Toxicity as measured by cell count (number of cells, DAPI staining) [11]: only minor toxicity at the highest concentrations used

Compound: O=C(O)c1ccc(O)c2ncccc12 [IOX1]
- Toxicity as measured by cell count (number of cells, DAPI staining) [1]: only observed cell toxicity at high concentrations
- EC50 [10]: 62 µM
- Effect on H3K4me3 mark in KDM5B IF assay, in words [10]: dose-dependent increase of H3K4me3
- Cell death in triple staining (healthy, apoptotic, necrotic), in words [5, 16]: little to no cell toxicity
- IC50 [12]: 20.6 ± 9 µM

Compound: Clc1ccc(N/N=C(/c2ccccc2)c2ccccn2)nc1 [JIB-04 Z]
- EC50 [10]: > 100 µM
- IC50 ([8]; AlphaScreen, IC50 ± SD (number of replicates), read-out: KDM5B IC50, in vitro): 7.01 µM
- IC50 [13]: > 10 µM
- IC50 [14]: > 10 µM

Compound: CN[C@@H]1C[C@H]2O[C@@](C)([C@@H]1OC)n1c3ccccc3c3c4c(c5c6ccccc6n2c5c31)C(=O)NC4 [Staurosporine, staurosporine]
- Cell death in triple staining (healthy, apoptotic, necrotic), in words [5, 16]: predominant apoptotic staining
- IC50 [7]: > 100 µM
- IC50 [8, 15]: > 100 µM
- IC50 [9]: > 100 µM
